pKd: −log10 of the molar value.
Columns and labels:
FADD−/− Jurkat cells = test: Necroptosis inhibition assay, TNF-α-induced necroptosis (CellTiter-Glo 2.0); type: cell-based, human; conditions: TNF-α 15 ng/mL; for Necroptosis inhibition assay (Rescue %) 1 μM: compound 1 μM; for Necroptosis inhibition assay (Rescue %) 10 μM: compound 10 μM
How it was run: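 Necroptosis induced by 15 ng/mL TNF-α (final) for 20–24 h at 37 °C, after a 30 min room-temperature pretreatment of FADD-deficient Jurkat cells with 0.1, 1 or 10 μM compound. ATP-based luminescence gave viability, from which inhibition rate and cytotoxicity were derived.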

MLKL [1] = target: T1, MLKL (Homo sapiens, UniProt Q8NB16); test: MLKL degradation assay in HepG2 cell line (western blot); type: cell-based; parameters: endogenous in cells; host or cells: HepG2 or HaCaT; conditions: cell line not given; for Degradation assay (Degradation %) 1 μM: compound 1 μM; for Degradation assay (Degradation %) 10 μM: compound 10 μM
T1 sequence (Q8NB16 1-471): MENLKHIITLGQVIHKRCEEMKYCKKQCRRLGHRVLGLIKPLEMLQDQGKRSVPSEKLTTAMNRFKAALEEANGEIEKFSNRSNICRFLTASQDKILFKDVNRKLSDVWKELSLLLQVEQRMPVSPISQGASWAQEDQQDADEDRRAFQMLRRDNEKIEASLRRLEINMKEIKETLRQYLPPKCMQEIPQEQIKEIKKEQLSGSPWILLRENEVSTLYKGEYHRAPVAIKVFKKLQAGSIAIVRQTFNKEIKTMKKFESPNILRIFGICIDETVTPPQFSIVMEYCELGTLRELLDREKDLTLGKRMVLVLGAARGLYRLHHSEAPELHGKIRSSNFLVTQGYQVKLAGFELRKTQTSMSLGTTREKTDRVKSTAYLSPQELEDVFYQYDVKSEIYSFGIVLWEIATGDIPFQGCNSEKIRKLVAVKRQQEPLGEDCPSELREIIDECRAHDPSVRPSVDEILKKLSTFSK
How it was run: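 Western blot chemiluminescence of MLKL in equal-protein lysates (10-15 μg, BCA-adjusted). Before lysis, HepG2 cells were exposed to 1 or 10 μM (final) test compound for 20-24 h at 37 °C.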

MLKL [2] = target: T1, MLKL; test: Measurement of binding affinity with MLKL receptor (competitive binding assay, Kd); parameters: made in house; host or cells: HEK 293 cell line (T7 phage in E. coli BL21-derived host is also described)
How it was run: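 qPCR of MLKL eluted from liganded beads served as the read-out, from which Kd was derived. The protein was made in HEK 293 cells with a DNA tag, and test compounds competed with the bead-bound ligand at 0.9% final DMSO.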

| Structure (SMILES) | Degradation assay (Degradation %) 1 μM (MLKL [1]) | Degradation assay (Degradation %) 10 μM (MLKL [1]) | pKd (MLKL [2]) | Necroptosis inhibition assay (Rescue %) 1 μM (FADD−/− Jurkat cells) | Necroptosis inhibition assay (Rescue %) 10 μM (FADD−/− Jurkat cells) | Necroptosis inhibition assay (Rescue %) 1 μM (FADD−/− Jurkat cells; FADD−/− Jurkat cells) | Necroptosis inhibition assay (Rescue %) 10 μM (FADD−/− Jurkat cells; FADD−/− Jurkat cells) |
| --- | --- | --- | --- | --- | --- | --- | --- |
| Nc1ncc(-c2cnn(C3CCN(CCOCCOCCOCCNC(=O)C4CN(c5cccc6c5C(=O)N(C5CCC(=O)NC5=O)C6=O)C4)CC3)c2)nc1C(=O)O[C@@H](C(=O)Nc1ccc(F)cc1)c1ccccc1 (stereo partly drawn) [TDH-141, (R)-2-((4-fluorophenyl)amino)-2-oxo-1-phenylethyl 3-amino-6-(1-(1-(1-(1-(2-(2,6-dioxopiperidin-3-yl)-1,3-dioxoisoindolin-4-yl)azetidin-3-yl)-1-oxo-5,8,11-trioxa-2-azatridecan-13-yl)piperidin-4-yl)-1H-pyrazol-4-yl)pyrazine-2-carboxylate] | 17.47% | 58.93% | 8.09 | 2.72% | 10.22% |  |  |
| Nc1ncc(-c2cnn(C3CCN(CCCCCCCCCCNC(=O)C4CCN(c5ccc6nnn(C7CCC(=O)NC7=O)c(=O)c6c5)CC4)CC3)c2)nc1C(=O)O[C@@H](C(=O)Nc1ccc(F)cc1)c1ccccc1 (stereo partly drawn) [TDH-177, (R)-2-((4-fluorophenyl)amino)-2-oxo-1-phenylethyl 3-amino-6-(1-(1-(10-(1-(3-(2,6-dioxopiperidin-3-yl)-4-oxo-3,4-dihydrobenzo[d][1,2,3]triazin-6-yl)piperidine-4-carboxamido)decyl)piperidin-4-yl)-1H-pyrazol-4-yl)pyrazine-2-carboxylate] | 36.03% | 75.8% | 7.08 | 41.3% | 48.7% |  |  |
| Nc1ncc(-c2cnn(C3CCN(C(=O)CC4CCN(C(=O)CCc5ccc6c(c5)C(=O)N(C5CCC(=O)NC5=O)C6=O)CC4)CC3)c2)nc1C(=O)O[C@@H](C(=O)Nc1ccc(F)cc1)c1ccccc1 (stereo partly drawn) [TDH-403, (R)-2-((4-fluorophenyl)amino)-2-oxo-1-phenylethyl 3-amino-6-(1-(1-(2-(1-(3-(2-(2,6-dioxopiperidin-3-yl)-1,3-dioxoisoindolin-5-yl)propanoyl)piperidin-4-yl)acetyl)piperidin-4-yl)-1H-pyrazol-4-yl)pyrazine-2-carboxylate] | 79.40% | 83.30% | 8.55 |  |  | 43.50% | 29.42% |

Further lines, with some results ahead:

| Degradation assay (Degradation %) 1 μM (MLKL [1]) | Degradation assay (Degradation %) 10 μM (MLKL [1]) | pKd (MLKL [2]) | Structure (SMILES) | Necroptosis inhibition assay (Rescue %) 1 μM (FADD−/− Jurkat cells) | Necroptosis inhibition assay (Rescue %) 10 μM (FADD−/− Jurkat cells) | Necroptosis inhibition assay (Rescue %) 1 μM (FADD−/− Jurkat cells; FADD−/− Jurkat cells) | Necroptosis inhibition assay (Rescue %) 10 μM (FADD−/− Jurkat cells; FADD−/− Jurkat cells) |
| --- | --- | --- | --- | --- | --- | --- | --- |
| 87.34% | 79.50% | 8.89 | Nc1ncc(-c2cnn(C3CCN(C(=O)CCC4CCN(C(=O)COc5ccc6nnn(C7CCC(=O)NC7=O)c(=O)c6c5)CC4)CC3)c2)nc1C(=O)O[C@@H](C(=O)Nc1ccc(F)cc1)c1ccccc1 (stereo partly drawn) [TDH-437, (R)-2-((4-fluorophenyl)amino)-2-oxo-1-phenylethyl 3-amino-6-(1-(1-(3-(1-(2-((3-(2,6-dioxopiperidin-3-yl)-4-oxo-3,4-dihydrobenzo[d][1,2,3]triazin-6-yl)oxy)acetyl)piperidin-4-yl)propanoyl)piperidin-4-yl)-1H-pyrazol-4-yl)pyrazine-2-carboxylate] |  |  | 42.82% | 23.20% |
| 89.40% | 86.43% | 8.15 | Nc1ncc(-c2cnn(C3CCN(CC4CCN(c5cc6c(cc5F)C(=O)N(C5CCC(=O)NC5=O)C6=O)CC4)CC3)c2)nc1C(=O)O[C@@H](C(=O)Nc1ccc(F)cc1)c1ccccc1 (stereo partly drawn) [TDH-519, (R)-2-((4-fluorophenyl)amino)-2-oxo-1-phenylethyl 3-amino-6-(1-(1-((1-(2-(2,6-dioxopiperidin-3-yl)-6-fluoro-1,3-dioxoisoindolin-5-yl)piperidin-4-yl)methyl)piperidin-4-yl)-1H-pyrazol-4-yl)pyrazine-2-carboxylate] |  |  | 4.80% | 17.07% |

Source: patent US20240252488A1 (KOREA RESEARCH INSTITUTE OF CHEMICAL TECHNOLOGY, priority 2020, published 2024)
